Assay results published in the supplement of paper PMC10307832.

Tests used:
Experiment in all cases: relative viability (nuclei count vs DMSO), 5 days (fraction); higher = more cells survive
[1] = compound: C=CC(=O)N1CCC[C@@H](n2nc(-c3ccc(Oc4ccccc4)cc3)c3c(N)ncnc32)C1 [Ibrutinib] + CC(C)C[C@H](NC(=O)[C@H](Cc1ccccc1)NC(=O)c1cnccn1)B(O)O [Bortezomib] (partner 0.002 µM)
Outline: (§1)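 Relative viability divides the nuclei count in treated wells by that in vehicle wells. Lung cancer cell lines were seeded in 1536-well plates, dosed by pin tool the next day, and fixed and stained after 5 days in one step with final 0.05% Triton X-100, 1% formaldehyde and 1 ug/ml Hoechst. Dosing was a single drug or a fixed anchor-drug dose plus five library-drug doses (not always all listed) in √10 steps, and values are medians of duplicate plates imaged at 4×.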

[2] = compound: C=CC(=O)N1CCC[C@@H](n2nc(-c3ccc(Oc4ccccc4)cc3)c3c(N)ncnc32)C1 [Ibrutinib] + Cc1nc(Nc2ncc(C(=O)Nc3c(C)cccc3Cl)s2)cc(N2CCN(CCO)CC2)n1 [Dasatinib] (partner 0.075 µM)
Outline: as §1

[3] = compound: C=CC(=O)Nc1cc(-n2c(=O)ccc3cnc4ccc(-c5ccc(NS(C)(=O)=O)cc5)cc4c32)ccc1C [BMX-IN-1] + CC(=O)c1c(C)c2cnc(Nc3ccc(N4CCNCC4)cn3)nc2n(C2CCCC2)c1=O [Palbociclib] (partner 0.5 µM)
Outline: as §1

[4] = compound: C=CC(=O)Nc1cc(-n2c(=O)ccc3cnc4ccc(-c5ccc(NS(C)(=O)=O)cc5)cc4c32)ccc1C [BMX-IN-1] + CC1(C)CCC(c2ccc(Cl)cc2)=C(CN2CCN(c3ccc(C(=O)NS(=O)(=O)c4ccc(N[C@H](CCN5CCOCC5)CSc5ccccc5)c(S(=O)(=O)C(F)(F)F)c4)cc3)CC2)C1 [Navitoclax] (partner 0.5 µM)
Outline: as §1

Cell Line | relative viability ([1]; first compound 0.005 µM) | relative viability ([1]; first compound 0.01581 µM) | relative viability ([1]; first compound 0.05 µM) | relative viability ([1]; first compound 0.1581 µM) | relative viability ([1]; first compound 0.5 µM) | relative viability ([2]; first compound 0.005 µM) | relative viability ([2]; first compound 0.01581 µM) | relative viability ([2]; first compound 0.05 µM) | relative viability ([2]; first compound 0.1581 µM) | relative viability ([2]; first compound 0.5 µM) | relative viability ([3]; first compound 0.02 µM) | relative viability ([3]; first compound 0.2 µM) | relative viability ([3]; first compound 0.6325 µM) | relative viability ([3]; first compound 2 µM) | relative viability ([4]; first compound 0.02 µM) | relative viability ([4]; first compound 0.2 µM) | relative viability ([4]; first compound 0.6325 µM) | relative viability ([4]; first compound 2 µM)
LXF-289 | 1.09 | 0.985 | 0.966 | 0.959 | 0.914 | 0.26 | 0.14 | 0.275 | 0.325 | 0.176 | 0.65 | 0.615 | 0.639 | 0.588 | 0.954 | 1.06 | 1.03 | 1.01
NCI-H23 | 0.839 | 1.02 | 0.938 | 1.07 | 1.13 | 0.705 | 0.762 | 0.902 | 0.662 | 0.901 | 0.536 | 0.526 | 0.555 | 0.47 | 0.979 | 0.85 | 0.858 | 0.738
NCI-H322M | 1.09 | 1.22 | 1.25 | 1.24 | 1.07 | 0.218 | 0.236 | 0.242 | 0.241 | 0.238 | 0.531 | 0.484 | 0.478 | 0.445 | 0.848 | 1.18 | 1.24 | 1.16
NCI-H441 | 0.518 | 0.498 | 0.45 | 0.575 | 0.479 | 0.638 | 0.649 | 0.729 | 0.571 | 0.55 | 0.199 | 0.205 | 0.234 | 0.21 | 0.466 | 0.85 | 1.08 | 0.755
NCI-H460 | 1.27 | 1.02 | 1.19 | 1.19 | 1.27 | 0.548 | 0.42 | 0.491 | 0.286 | 0.603 | 0.131 | 0.195 | 0.213 | 0.149 | – | – | 1.32 | 1.25
NCI-H520 | 0.567 | 0.45 | 0.553 | 0.662 | 0.338 | 0.192 | – | 0.183 | 0.237 | 0.132 | 0.254 | 0.218 | 0.218 | 0.219 | 1.35 | 1.4 | 1.16 | 1.03
NCI-H647 | 0.823 | 0.86 | 0.991 | 1.04 | 1.02 | – | 0.164 | 0.167 | 0.206 | 0.174 | 0.436 | 0.384 | 0.377 | 0.416 | 1.52 | 1.23 | 1.03 | 1.16
NCI-H727 | 0.628 | 0.796 | 0.981 | 0.623 | 0.785 | – | 0.393 | 0.424 | – | 0.298 | 0.611 | 0.672 | 0.625 | 0.592 | 0.333 | 0.443 | 0.471 | 0.426
NCI-H838 | 0.781 | 0.729 | 0.687 | 0.741 | 0.673 | 0.327 | 0.286 | 0.297 | 0.251 | 0.289 | 0.241 | 0.198 | 0.222 | 0.24 | 1.39 | 1.33 | 1.21 | 1.18
NCI-H1355 | – | 1.14 | 1.18 | 1.2 | 1.16 | 0.527 | 0.647 | 0.718 | 0.623 | 0.677 | 0.394 | 0.392 | 0.399 | 0.404 | 1 | 0.969 | 0.94 | 0.99
NCI-H1437 | 0.647 | 0.476 | 0.449 | 0.482 | 0.603 | 0.313 | 0.39 | 0.375 | 0.217 | 0.362 | 0.326 | 0.294 | 0.354 | 0.328 | 1.3 | 1.33 | 1.07 | 1.18
NCI-H1650 | 0.22 | 0.216 | 0.23 | 0.203 | 0.22 | 0.304 | 0.281 | 0.321 | 0.369 | 0.346 | 0.307 | 0.313 | 0.32 | 0.333 | 1.16 | 1.25 | 1.36 | 1.25
NCI-H1651 | 0.953 | 0.971 | – | 0.822 | 0.967 | 0.446 | 0.386 | 0.368 | 0.352 | 0.428 | 0.598 | 0.559 | 0.511 | 0.533 | 1.24 | 1.2 | 1.02 | 1.04
NCI-H1666 | 0.768 | 0.79 | 0.802 | 0.695 | 0.977 | 0.841 | 0.807 | 0.803 | 0.896 | 0.706 | 0.64 | 0.672 | 0.606 | 0.628 | 1.09 | 0.979 | 0.938 | 0.92
NCI-H1734 | 0.799 | 0.923 | 1.02 | 0.989 | 0.929 | 0.36 | 0.473 | 0.506 | 0.521 | 0.454 | 0.37 | 0.375 | 0.386 | 0.329 | 1.01 | 0.907 | 0.953 | 0.949
NCI-H1755 | 0.914 | 0.983 | 1.02 | 0.95 | 0.969 | 0.478 | 0.365 | 0.444 | 0.484 | 0.383 | 0.394 | 0.439 | 0.509 | 0.422 | 1.01 | 1.05 | 1.07 | 1.03
NCI-H1792 | – | 0.984 | 1 | 0.85 | 0.93 | – | 0.759 | 0.755 | – | 0.685 | – | 0.64 | 1.26 | 0.613 | 0.559 | 0.632 | 0.49 | 0.724
NCI-H1915 | – | 0.996 | 1 | 1.05 | 0.979 | 0.287 | 0.292 | 0.288 | 0.319 | 0.369 | 0.54 | 0.543 | 0.555 | 0.538 | 0.808 | 0.793 | 0.764 | 0.777
